“Also recorded” adds a separate entry of the source.
What was measured:
[1] = biological target: T1, TET2 (Homo sapiens, UniProt Q6N021); experiment: Chemiluminescence ELISA of TET2-mediated oxidation of methylated DNA; assay type: biochemical; conditions: dose-response
T1 construct: purchased Bioscience 50652
Protocol: Procedure adapted from manual (Bioscience; TET1: 50651, TET2: 50652). Prepare TBST buffer (1× TBS, pH 8.0, containing 0.05% Tween-20). […] Dilute primary antibody 100-fold with blocking buffer. Diluted secondary antibody 1000-fold with blocking buffer. […] To 96-well plate provided, add 200 μl TBST buffer to each well and incubate at room temperature for 15 min. Remove TBST buffer and add 20 μl 1.5× TAB, 10 μl inhibitor solution, 20 μl diluted TET to each well. For controls, add 10 μl 5% DMSO solution and 20 μl 1.0× TAB. Incubate at room temperature for 2 h. Remove reaction solution and wash 3× with TBST buffer (200, 200, and 100 μl). Add 100 μl blocking buffer 53 μl diluted primary antibody and shake at room temperature for 1 h. Remove diluted primary antibody and wash 3× with TBST buffer (200, 200, and 100 μl). Add 100 μl blocking buffer to each well and shake at room temperature for 10 min. Remove blocking buffer. Add 100 μl diluted secondary antibody. Shake at room temperature for 30 min. […] Immediately, read chemiluminescence (BioTek Synergy 2 plate reader).

[2] = biological target: T2, TET1 (Homo sapiens, UniProt Q8NFU7); experiment: Chemiluminescence ELISA of TET1-mediated oxidation of methylated DNA; assay type: biochemical; conditions: for TET1 inhibition (in words): compound at 100 μM in ELISA
T2 construct: purchased Bioscience 50651
Protocol: To determine whether cytosine analogs inhibited TET-mediated oxidation of methylated DNA, the amount of hydroxymethylcytosine in reactions containing TET enzyme alone or TET enzyme and a cytosine analog were determined using chemiluminescence ELISA assays.
Procedure adapted from manual (Bioscience; TET1: 50651, TET2: 50652). Prepare TBST buffer (1× TBS, pH 8.0, containing 0.05% Tween-20). Dilute 4.0× TET Assay Buffer (TAB) to 1.5× TAB and 1.0× TAB evenly with diluted water. Thaw and dilute (5.0 ng/μl for TET1 and 10 ng/μl for TET2) TET enzyme from kit with 1.0× TAB. Dilute primary antibody 100-fold with blocking buffer. Diluted secondary antibody 1000-fold with blocking buffer. Dilute DMSO inhibitor solutions with 1.0× TAB to wanted concentration (ensure solutions are 5% DMSO). To 96-well plate provided, add 200 μl TBST buffer to each well and incubate at room temperature for 15 min. Remove TBST buffer and add 20 μl 1.5× TAB, 10 μl inhibitor solution, 20 μl diluted TET to each well. For controls, add 10 μl 5% DMSO solution and 20 μl 1.0× TAB. Incubate at room temperature for 2 h. Remove reaction solution and wash 3× with TBST buffer (200, 200, and 100 μl). Add 100 μl […] diluted primary antibody and shake at room temperature for 1 h. Remove diluted primary antibody and wash 3× with TBST buffer (200, 200, and 100 μl). Add 100 μl blocking buffer to each well and shake at room temperature for 10 min. Remove blocking buffer. Add 100 μl diluted secondary antibody. Shake at room temperature for 30 min. Remove diluted secondary antibody and wash 3× with TBST buffer (200, 200, and 100 μl). Add 100 μl blocking buffer to each well and shake at room temperature for 10 min. Remove blocking buffer. Combine horseradish peroxidase (HRP) substrate A and HRP substrate B at 1:1 ratio. Add 100 μl of HRP solution to each well. Immediately, read chemiluminescence (BioTek Synergy 2 plate reader).

[3] = tested on: DNMT3a; experiment: Inhibitory assay for DNMT3a; assay type: biochemical; conditions: concentration of 500 μM
[4] = tested on: HT22 cells; experiment: Whole genome bisulfite sequencing in HT22 cells; assay type: cell-based, mouse; conditions: 10 μM, 24 hours
Protocol: Whole genome bisulfite sequencing in HT22 cells was performed. […] Generally, the genome was broken into windows each containing 25 CpGs, and an analysis was performed to determine differentially methylated regions. […] Additionally, the differentially methylated regions (DMRs) were highly associated with DMRs detected for those Tet gene deficient cells/tissue.
HT-22 cells were provided by David Schubert at the Salk Institute (San Diego, Calif.). Cells were cultured in Dulbecco's Modified Eagle Medium (Life Technologies, Carlsbad, Calif.) supplemented with 10% FBS, 100 U/ml penicillin, and 100 μg/ml streptomycin (Life Technologies, Carlsbad, Calif.) at 37° C. and 5% CO2. […]
Cells were lysed and gDNA was extracted (Qiagen, DNeasy), bisulfite converted (Accel-NGS Methyl-Seq DNA Library, Swift), and sequenced (Hudson Alpha Discovery) on the Illumina platform (HiSeq_X10, paired end, 150 bp, 500 million reads per sample). Reads were QC'd by FastQC (v0.11.5), filtered by quality (average quality score <20), Illumina adapters removed, and sequencing primers trimmed using Trim_Galore! […] The filtered and trimmed reads were then mapped to the mouse genome (mm10), deduplicated, and CpG methylation levels extracted using Bismark (v0.19.0). Altered CpG methylation was determined by dividing the mouse genome into ˜850,000 windows, each containing 25 CpG sites. […]

T2 sequence (Q8NFU7 whole entry): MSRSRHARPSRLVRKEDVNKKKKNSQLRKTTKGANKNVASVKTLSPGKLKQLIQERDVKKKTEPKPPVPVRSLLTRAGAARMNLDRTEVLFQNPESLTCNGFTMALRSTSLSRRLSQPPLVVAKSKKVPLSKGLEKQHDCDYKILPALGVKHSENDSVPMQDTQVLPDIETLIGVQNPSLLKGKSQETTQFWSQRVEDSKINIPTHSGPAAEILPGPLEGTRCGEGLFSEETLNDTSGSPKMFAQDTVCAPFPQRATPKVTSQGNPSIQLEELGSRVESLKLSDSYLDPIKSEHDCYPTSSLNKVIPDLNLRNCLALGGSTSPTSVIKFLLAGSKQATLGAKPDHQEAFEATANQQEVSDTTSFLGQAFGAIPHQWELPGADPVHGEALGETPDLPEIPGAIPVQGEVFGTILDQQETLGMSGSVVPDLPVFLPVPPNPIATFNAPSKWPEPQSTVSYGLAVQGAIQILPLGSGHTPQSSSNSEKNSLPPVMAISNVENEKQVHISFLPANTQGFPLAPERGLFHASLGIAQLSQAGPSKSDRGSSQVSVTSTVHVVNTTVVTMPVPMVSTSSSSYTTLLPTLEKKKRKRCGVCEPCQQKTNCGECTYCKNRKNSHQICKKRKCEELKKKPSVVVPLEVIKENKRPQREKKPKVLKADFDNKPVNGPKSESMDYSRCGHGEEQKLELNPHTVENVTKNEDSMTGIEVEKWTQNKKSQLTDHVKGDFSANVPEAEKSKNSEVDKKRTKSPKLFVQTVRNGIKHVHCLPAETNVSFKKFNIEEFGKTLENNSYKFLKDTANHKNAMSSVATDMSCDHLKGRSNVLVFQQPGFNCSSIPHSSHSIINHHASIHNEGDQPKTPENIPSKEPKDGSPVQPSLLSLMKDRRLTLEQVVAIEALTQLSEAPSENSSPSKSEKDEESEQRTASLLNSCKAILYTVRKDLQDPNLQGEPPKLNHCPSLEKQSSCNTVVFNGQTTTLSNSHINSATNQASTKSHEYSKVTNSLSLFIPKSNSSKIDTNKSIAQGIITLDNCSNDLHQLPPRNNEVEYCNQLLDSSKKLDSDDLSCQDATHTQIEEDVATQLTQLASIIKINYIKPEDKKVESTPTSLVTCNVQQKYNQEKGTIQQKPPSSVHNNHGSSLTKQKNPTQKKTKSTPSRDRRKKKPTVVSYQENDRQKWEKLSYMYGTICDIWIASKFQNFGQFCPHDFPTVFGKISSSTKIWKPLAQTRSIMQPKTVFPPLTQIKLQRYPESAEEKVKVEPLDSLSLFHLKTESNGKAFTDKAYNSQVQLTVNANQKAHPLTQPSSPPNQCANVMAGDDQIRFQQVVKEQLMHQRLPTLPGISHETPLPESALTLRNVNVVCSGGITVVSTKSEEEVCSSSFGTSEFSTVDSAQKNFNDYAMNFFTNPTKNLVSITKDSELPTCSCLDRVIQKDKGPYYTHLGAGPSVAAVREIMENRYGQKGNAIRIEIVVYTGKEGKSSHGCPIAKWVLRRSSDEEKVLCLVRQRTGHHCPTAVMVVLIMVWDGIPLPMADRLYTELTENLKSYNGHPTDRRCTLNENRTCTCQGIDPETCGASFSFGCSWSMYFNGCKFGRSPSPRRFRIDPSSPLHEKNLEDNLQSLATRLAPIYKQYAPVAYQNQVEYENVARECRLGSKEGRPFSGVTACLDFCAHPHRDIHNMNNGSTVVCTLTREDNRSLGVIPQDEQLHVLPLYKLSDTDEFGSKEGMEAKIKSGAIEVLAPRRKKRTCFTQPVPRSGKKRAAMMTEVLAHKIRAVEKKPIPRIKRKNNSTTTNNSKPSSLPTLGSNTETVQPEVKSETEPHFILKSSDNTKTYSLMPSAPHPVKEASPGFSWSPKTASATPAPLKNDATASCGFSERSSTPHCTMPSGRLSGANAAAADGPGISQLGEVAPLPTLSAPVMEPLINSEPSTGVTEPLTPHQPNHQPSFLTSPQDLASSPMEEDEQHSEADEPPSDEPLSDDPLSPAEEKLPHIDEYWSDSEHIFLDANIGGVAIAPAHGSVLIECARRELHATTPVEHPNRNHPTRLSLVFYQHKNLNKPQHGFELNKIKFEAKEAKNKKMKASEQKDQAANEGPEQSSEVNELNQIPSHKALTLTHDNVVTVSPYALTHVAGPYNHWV

Nc1nc(=O)n(-c2ccccc2)cc1Cl [Bobcat216, 4-amino-5-chloro-1-phenylpyrimidin-2(1H)-one]
IC50 [1]: 98 µM

Nc1nc(=O)n(-c2ccc(-c3ccccc3)cc2)cc1Cl [Bobcat219, 1-([1,1′-biphenyl]-4-yl)-4-amino-5-chloropyrimidin-2(1H)-one]
TET1 inhibition (in words) [2]: significantly reduced TET1 inhibition

Nc1nc(=O)n(-c2ccccc2-c2ccccc2)cc1Cl [Bobcat337, 1-([1,1′-biphenyl]-2-yl)-4-amino-5-chloropyrimidin-2(1H)-one]
TET1 inhibition (in words) [2]: significantly reduced TET1 inhibition

Nc1nc(=O)n(-c2cccc(-c3ccccc3)c2)cc1Cl [Bobcat339, 1-([1,1′-biphenyl]-3-yl)-4-amino-5-chloropyrimidin-2(1H)-one]
inhibition of DNMT3a [3]: failing to show substantial inhibition; also recorded: but not DNMT3a | differentially methylated regions (windows of 25 CpGs) [4]: A thousand such regions were observed, most of which are hypermethylated | global CpG methylation [4]: significant change in global CpG methylation | TET1 inhibition (in words) [2]: significantly enhanced activity | TET1 inhibition (in words) ([2]; listed as 3-biphenyl): significantly increased TET1 inhibition | IC50 ([2]; dose-response, N=3): 33 µM

— patent US11504369B2, “Cytosine-based TET enzyme inhibitors” (President and Trustees of Bates College, priority 2019, dated 2022)
